From article PMC10384408, “Anticancer Tungstenocenes with a Diverse Set of (O,O–), (O,S–) and (O,N–) Chelates—A Detailed Biological Study Using an Improved Evaluation via 3D Spheroid Models” (Pharmaceutics, 2023)
Several values for one entry are separate records, joined by “and”; a condition that tells them apart may be missing. Equal values may be shown once.

Columns and labels:
[1] = tested on: IMR-90 human lung fibroblasts; assay: MTT cytotoxicity assay, IMR-90 fibroblasts; format: cell-based; conditions: exposure time 96 h, mean ± SD
Protocol: (§1) CH1/PA-1 (ovarian teratocarcinoma), SW480 (colon carcinoma) and A549 (non-small cell lung cancer) cells were maintained as described in the reference. IMR-90 human fetal lung fibroblasts (from the European Collection of Authenticated Cell Cultures, Porton Down, Salisbury, UK) were cultured in Stable Cell^TM DMEM/F12 supplemented with 0.01 mg/mL human recombinant insulin (both purchased from Sigma-Aldrich) and 10% fetal bovine serum (FBS, BioWest, Nuaillé, France). Human colon carcinoma cell lines HCT116 and HT29 (both kindly provided by the Institute of Cancer Research, Department of Medicine I, Medical University of Vienna, Austria) were cultured in McCoy’s 5a medium supplemented with 4 mM L-glutamine (both purchased from Sigma-Aldrich) and 10% FBS. MCF-7 human breast adenocarcinoma cells (kindly provided by M. Ogris, Department of Pharmaceutical Sciences, University of Vienna, Austria) were maintained in DMEM (high glucose) supplemented with 4 mM L-glutamine, 0.1 mg/mL human insulin (all purchased from Sigma-Aldrich) and 10% FBS. All cell lines were grown as monolayers in 75 cm^2 culture flasks (CytoOne, Starlab, Hamburg, Germany) at 37 °C in a humidified atmosphere containing 5% CO2.
Exponentially growing cells were plated into 96-well microculture plates (CytoOne, tissue culture treated, Starlab, Hamburg, Germany) in densities of 1 × 10^3 CH1/PA-1, 2 × 10^3 SW480, 3 × 10^3 A549 and 7 × 10^3 IMR-90 cells per well (each in 100 µL). After a 24 h preincubation, drugs were added in serial dilution to give a final volume of 200 µL/well and exposed for 96 h. At the end of the exposure, the drug solutions were replaced by 100 µL RPMI 1640/MTT mixture (7:1 ratio). MTT (3-(4,5-dimethylthiazol-2-yl)-2,5-diphenyl-2H-tetrazolium bromide), (Acros Organics, Geel, Belgium) solution was prepared in phosphate-buffered saline (5 mg/mL) and mixed with RPMI1640 medium supplemented with 4 mM L-glutamine (both from Sigma-Aldrich) and 10% FBS. After 4 h incubation, the formazan crystals were solubilized in 150 µL of DMSO per well. Absorbance was measured at 550 nm (and at 690 nm as a reference) with a microplate reader (ELx808, BioTek, Winoosky, VT, USA) and Gen5^TM 3.08 software (BioTek). The 50% inhibitory concentrations (IC50) relative to untreated controls were interpolated from concentration-effect curves. At least three biologically and technically independent experiments were performed.

HT29 cells = assay: Resazurin assay, HT29 2D monolayer; format: cell-based, human; conditions: 96 h
Protocol: as §1
(§2) For the resazurin assay in monolayer cultures, cells were seeded into 96-well microculture plates (CytoOne, tissue culture treated, Starlab, Hamburg, Germany) in densities of 2 × 10^3 HCT116, 2 × 10^3 HT29 and 4 × 10^3 MCF-7 cells per well (each in 100 µL). For tests in 3D cultures, spheroids were grown as described above. After 24 h (for monolayers) or 4 days (for spheroids) the test compounds in the appropriate medium were added in serial dilution to the plates to obtain a total volume of 200 µL/well. Wells without cells, containing medium and resazurin (Alfa Aesar, Thermo Fisher, Kandel, Germany) solution were used as blanks. After 96 h exposure 20 µL of the resazurin solution (440 µM) were added to each well, followed by a 4 h (2D) or 12 h (3D) incubation period. Resorufin fluorescence was quantified at 530 nm (and a reference wavelength of 620 nm) by using a microplate reader (Synergy HT, BioTek) with Gen5^TM 3.10 software (BioTek).

[2] = tested on: MCF-7 multicellular tumor spheroids; assay: Resazurin assay, MCF-7 3D spheroids; format: cell-based, human; conditions: 96 h; for IC50: spheroids
Protocol: as §1
(§3) For growing multicellular tumor spheroids, 400 HCT116, 400 HT29 or 800 MCF-7 cells per well were plated into round-bottom ultra-low attachment 96-well plates (Corning, Glendale, AZ, USA) in the media described above and incubated at 37 °C for 96 h. Spheroids were treated with 10 µM of the two most cytotoxic compounds 3 and 4 for another 96 h. The diameters of the spheroids were measured with Cell^F software under a CKX41 Olympus microscope before treatment and in constant daily intervals over the 96 h treatment period. For statistical analysis the t-test with Welsh’s correction was implemented in GraphPad Prism software (Version 6.01).
as §2

MCF-7 cells = assay: Annexin V-FITC/PI apoptosis assay, MCF-7; conditions: MCF-7, 24 h; for ∑apoptotic cells [%]: sum of early and late
[3] = tested on: HCT116, HT29 and MCF-7 cell lines; assay: ROS detection (DCFH-DA assay); format: cell-based, human; conditions: 2, 20, 100 and 200 µM, 2 h
Protocol: Reactive oxygen species (ROS) generation was measured by means of the DCFH-DA assay. […] On the following day, cells were washed with 200 µL Hanks’ balanced salt solution (HBSS, Sigma-Aldrich, containing 1% FBS) and stained with 100 µL of 25 µM DCFH-DA (2′,7′-dichlorofluorescein diacetate, Sigma-Aldrich) in HBSS (containing 1% FBS) for 45 min at 37 °C in the dark. After the incubation period, cells were washed with 200 µL HBSS (1% FBS) and loaded with compounds at concentrations of 2 µM, 20 µM, 100 µM and 200 µM in 200 µL phenol-red-free MEM (1% FBS) in triplicates. As positive controls, cells were treated with 200 µM and 400 µM tert-butylhydroperoxide (Sigma-Aldrich). Wells containing only phenol-red-free medium with 1% FBS were used as blanks, and non-drug treated, cell containing wells as reference values. Fluorescence (excitation: 485/20 nm, emission: 516/20 nm) was recorded in 10 min intervals with the Synergy HT reader (BioTek) over 2 h.

HCT116 spheroids = assay: Spheroid growth, HCT116; format: cell-based, human; conditions: 10 µM, 96 h treatment
Protocol: as §3

[4] = Aqueous stability by UV/Vis in PBS; format: physicochemical; conditions: 24 h, 293 K, 1 vol% DMSO
Protocol: Stock solutions in DMSO of compounds 1–10 were utilized to determine the solubility in PBS by adding 1 vol% of the stock solution to a suitable amount of PBS. […] UV/Vis data were recorded on a Perkin Elmer Lambda 650 UV/Vis Spectrophotometer with a Peltier element for temperature control.
In order to examine the stability of the compounds in aqueous solution, UV/Vis measurements were performed every hour during 24 h at 293 K. Solutions of compounds 1–10 were prepared in PBS (10%) from a previously prepared DMSO stock solution of each compound. The total concentration of DMSO was 1 vol% for the final complex solutions of 1–10.

Row | SMILES | IC50 [1] [µM] | IC50 (HT29 cells) [µM] | ratio 3D/2D of IC50 values, MCF-7 [2] | IC50 [2] [µM] | early apoptotic cells [%] AV+ / PI- (MCF-7 cells; 200 µM) [%] | late apoptotic cells [%] AV+ / PI+ (MCF-7 cells; 200 µM) [%] | necrotic cells [%] AV- / PI+ (MCF-7 cells; 200 µM) [%] | viable cells [%] AV- / PI- (MCF-7 cells; 200 µM) [%] | intracellular ROS levels [3] | precipitation in PBS [4] | ∑apoptotic cells [%] (MCF-7 cells; 200 µM) | further results
1 | Cc1occc(=S)c1[O-].F[P-](F)(F)(F)(F)F.[W+4].c1cc[cH-]c1.c1cc[cH-]c1 [Compound 2, Bis(η^5-cyclopentadienyl)[2-methyl-3-(oxo-κO)-4-(1H)-pyran-4-thionato-κS]tungsten(IV) hexafluorophosphate] | 107 ± 30 | 53 ± 9 | > 3.0 | > 200 | 7.4 ± 2.7 | 22.7 ± 4.5 | 14.9 ± 8.3 | 55.1 ± 10.1 | – | – | – | –
2 | F[P-](F)(F)(F)(F)F.O=c1c([O-])c(-c2ccc(Cl)cc2)oc2ccccc12.[W+4].c1cc[cH-]c1.c1cc[cH-]c1 [Compound 3, Bis(η^5-cyclopentadienyl)[2-(4-chlorophenyl)-3-(oxo-κO)-4(H)-chromen-4-oato-κO]tungsten(IV) hexafluorophosphate] | 38.2 ± 0.4 | 17 ± 4 | 6.8 and 7.0 | 44 ± 1 | – | – | – | – | Pronounced elevation of ROS levels | slowly precipitate out of the solution over time | – | spheroid growth (HCT116 spheroids): markedly reduced growth; early apoptotic cells [%] AV+ / PI- (MCF-7 cells; 2 µM): 1.4 ± 0.5%; late apoptotic cells [%] AV+ / PI+ (MCF-7 cells; 2 µM): 4.3 ± 1.5%; necrotic cells [%] AV- / PI+ (MCF-7 cells; 2 µM): 2.5 ± 0.6%; viable cells [%] AV- / PI- (MCF-7 cells; 2 µM): 91.8 ± 1.9%; ∑apoptotic cells [%] (MCF-7 cells; 2 µM): 5.6%; early apoptotic cells [%] AV+ / PI- (MCF-7 cells; 10 µM): 1.4 ± 0.3%; late apoptotic cells [%] AV+ / PI+ (MCF-7 cells; 10 µM): 7.7± 4.4%; necrotic cells [%] AV- / PI+ (MCF-7 cells; 10 µM): 4.1 ± 1.8%; viable cells [%] AV- / PI- (MCF-7 cells; 10 µM): 86.9 ± 5.9%; ∑apoptotic cells [%] (MCF-7 cells; 10 µM): 9.1%; early apoptotic cells [%] AV+ / PI- (MCF-7 cells; 20 µM): 1.5 ± 0.6%; late apoptotic cells [%] AV+ / PI+ (MCF-7 cells; 20 µM): 11.4 ± 0.7%; necrotic cells [%] AV- / PI+ (MCF-7 cells; 20 µM): 8.7 ± 0.3%; viable cells [%] AV- / PI- (MCF-7 cells; 20 µM): 78.5 ± 1.0%; ∑apoptotic cells [%] (MCF-7 cells; 20 µM): 12.9%; early apoptotic cells [%] AV+ / PI- (MCF-7 cells; 50 µM): 1.3 ± 0.5%; late apoptotic cells [%] AV+ / PI+ (MCF-7 cells; 50 µM): 16.2 ± 2.5%; necrotic cells [%] AV- / PI+ (MCF-7 cells; 50 µM): 25 ± 0.9%; viable cells [%] AV- / PI- (MCF-7 cells; 50 µM): 57.7 ± 2.2%
3 | F[P-](F)(F)(F)(F)F.O=C([O-])c1ccccn1.[W+4].c1cc[cH-]c1.c1cc[cH-]c1 [Compound 5, Bis(η^5-cyclopentadienyl)[2-(carboxylato-κO)-pyridine-κN]tungsten(IV) hexafluorophosphate] | – | > 200 | – | > 200 | 1.3 ± 0.7 | 7.9 ± 5.3 | 4.2 ±2.2 | – | – | – | 9.2 | –
4 | Cc1c([O-])c(=O)ccn1C.F[P-](F)(F)(F)(F)F.[W+4].c1cc[cH-]c1.c1cc[cH-]c1 [Compound 6, Bis(η^5-cyclopentadienyl)[1,2-dimethyl-3-(oxo-κO)-4-(1H)-pyridonato-κO]tungsten(IV) hexafluorophosphate] | – | > 200 | – | > 200 | 1.4 ± 0.8 | 3.6 ± 1.5 | 2.1 ± 0.5 | 92.8 ± 2.2 | – | – | 5.1 | –
5 | Cc1cc(=O)c([O-])co1.F[P-](F)(F)(F)(F)F.[W+4].c1cc[cH-]c1.c1cc[cH-]c1 [Compound 7, Bis(η^5-cyclopentadienyl)[2-methyl-5-(oxo-κO)-4-(1H)-pyran-4-ato-κO] tungsten(IV) hexafluorophosphate] | – | > 200 | – | > 200 | 1.3 ± 0.4 | 8.1 ± 5.5 | 3.2 ± 1.2 | 87.4 ± 6.6 | – | slowly precipitate out of the solution over time | 9.4 | –
6 | Cc1cc(=S)c([O-])co1.F[P-](F)(F)(F)(F)F.[W+4].c1cc[cH-]c1.c1cc[cH-]c1 [Compound 8, Bis(η^5-cyclopentadienyl)[2-methyl-5-(oxo-κO)-pyran-4-(1H)-thionato-κS] tungsten(IV) hexafluorophosphate] | – | > 200 | – | > 200 | 1.2 ± 0.3 | 8.7 ± 6.9 | 2.7 ± 1.4 | 87.3 ± 8.3 | – | slowly precipitate out of the solution over time | 9.9 | –
7 | CCc1occc(=O)c1[O-].F[P-](F)(F)(F)(F)F.[W+4].c1cc[cH-]c1.c1cc[cH-]c1 [Compound 9, Bis(η^5-cyclopentadienyl)[2-ethyl-3-(oxo-κO)-4-(1H)-pyran-4-ato-κO] tungsten(IV) hexafluorophosphate] | – | > 200 | – | > 200 | 1.6 ± 1.0 | 8.4 ± 5.5 | 2.9 ± 1.8 | 87.2 ± 7.2 | Pronounced elevation of ROS levels | – | – | –
8 | CCc1occc(=S)c1[O-].F[P-](F)(F)(F)(F)F.[W+4].c1cc[cH-]c1.c1cc[cH-]c1 [Compound 10, Bis(η^5-cyclopentadienyl)[2-ethyl-3-(oxo-κO)-4-(1H)-pyran-4-thionato-κS] tungsten(IV) hexafluorophosphate] | 114 ± 33 | 54 ± 2 | > 6.9 | > 200 | 5.5 ± 3.2 | 46.3 ± 3.2 | 32.4 ± 12.3 | 15.7 ± 6.0 | relevant ROS generation | slowly precipitate out of the solution over time | – | –
